Several values for one entry are separate records, joined by “and”; a condition that tells them apart may be missing. Equal values may be shown once. Read-outs that look alike come from different tables or passages of the source.
Assays:
Alternaria brassicae = assay: Example O: preventative in vivo test with Alternaria brassicae (leaf spot on radish); conditions: 500 ppm, evaluation 5 days after inoculation
Method: The active compounds tested are prepared by homogenization in a mixture of acetone/Tween/DMSO and then diluted with water to the desired active compound concentration. Radish plants (cultivar “Pernod Clair”), sown in a 50/50 peat/pozzolana soil substrate and cultivated at 17° C., are treated at the 2-leaf stage by spraying with the active compound, prepared as above. As a control, plants are treated with the mixture of acetone/Tween/DMSO/water without the active compound. After 24 hours, the plants are inoculated by spraying the leaves with an aqueous suspension of Alternaria brassicae spores.

Uromyces appendiculatus [1] = assay: Example W: preventative in vivo test with Uromyces appendiculatus (bean rust); conditions: 500 ppm, evaluation 10 days after inoculation
Method: The active compounds tested are prepared by homogenization in a mixture of acetone/Tween/DMSO and then diluted with water to the desired active compound concentration. Bean plants (cultivar “Saxa”), sown in a 50/50 peat/pozzolana soil substrate and cultivated at 24° C., are treated at the 2-leaf stage (height 9 cm) by spraying with the active compound, prepared as above. As a control, plants are treated with the mixture of acetone/Tween/DMSO/water without the active compound. After 24 hours, the plants are inoculated by spraying the leaves with an aqueous suspension of Uromyces appendiculatus spores.

Puccinia recondita = assay: Example T: preventative in vivo test with Puccinia recondita (brown rust on wheat); conditions: 500 ppm, evaluation 10 days after inoculation
Method: The active compounds tested are prepared by homogenization in a mixture of acetone/Tween/DMSO and then diluted with water to the desired active compound concentration. Wheat plants (cultivar “Scipion”), sown in a 50/50 peat/pozzolana soil substrate and cultivated at 22° C. (12 h)/20° C. (12 h), are treated at the 1-leaf stage (height 10 cm) by spraying with the active compound, prepared as above. As a control, plants are treated with the mixture of acetone/Tween/DMSO/water without the active compound. After 24 hours, the plants are inoculated by spraying the leaves with an aqueous suspension of Puccinia recondita spores.

Sphaerotheca fuliginea [2] = assay: Example V: preventative in vivo test with Sphaerotheca fuliginea (powdery mildew on cucumber); conditions: 500 ppm, evaluation 12 days after inoculation
Method: The active compounds tested are prepared by homogenization in a mixture of acetone/Tween/DMSO and then diluted with water to the desired active compound concentration. Cucumber plants (cultivar “Vert petit de Paris”), sown in a 50/50 peat/pozzolana soil substrate and cultivated at 24° C., are treated at the Z11 cotyledon stage by spraying with the active compound, prepared as above. As a control, plants are treated with the mixture of acetone/Tween/DMSO/water without the active compound. After 24 hours, the plants are inoculated by spraying the leaves with an aqueous suspension of Sphaerotheca fuliginea spores. The inoculated cucumber plants are incubated at about 20° C./25° C. and a relative atmospheric humidity of 60/70%.

Septoria tritici [3] = assay: Example U: preventative in vivo test with Septoria tritici (leaf blotch disease on wheat); conditions: 500 ppm, evaluation 21 to 28 days after inoculation
Method: The active compounds tested are prepared by homogenization in a mixture of acetone/Tween/DMSO and then diluted with water to the desired active compound concentration. Wheat plants (cultivar “Scipion”), sown in a 50/50 peat/pozzolana soil substrate and cultivated at 22° C. (12 h)/20° C. (12 h), are treated at the 1-leaf stage (height 10 cm) by spraying with the active compound, prepared as above. As a control, plants are treated with the mixture of acetone/Tween/DMSO/water without the active compound. After 24 hours, the plants are inoculated by spraying the leaves with an aqueous suspension of cryogenically preserved Septoria tritici spores.

Phytophthora infestans = type: in vivo; conditions: tomato, preventative, 500 ppm, evaluation 5 days after inoculation
[4] = log P by HPLC on reversed-phase columns (EEC directive 79/831 Annex V.A8); type: physicochemical
Method: The log P values were measured according to EEC directive 79/831 Annex V.A8 by HPLC (High Performance Liquid Chromatography) on reversed-phase columns, using the methods below: […] Calibration was carried out using unbranched alkan-2-ones (having from 3 to 16 carbon atoms) with known log P values (the log P values were determined by the retention times using linear interpolation between two successive alkanones). The lambda maX values were determined in the maxima of the chromatographic signals using the UV spectra from 200 nm to 400 nm.

Sphaerotheca fuliginea [5] = assay: Example B: Sphaerotheca test (cucumber)/protective; type: in vivo; conditions: protective, 500 ppm, evaluation 7 days after inoculation
Method: Solvent: 49 parts by weight of N,N-dimethylformamide Emulsifier: 1 part by weight of alkylaryl polyglycol ether To produce a suitable preparation of active compound, 1 part by weight of active compound is mixed with the stated amounts of solvent and emulsifier, and the concentrate is diluted with water to the desired concentration. To test for protective activity, young cucumber plants are sprayed with the preparation of active compound at the stated application rate. 1 day after the treatment, the plants are inoculated with a spore suspension of Sphaerotheca fuliginea. The plants are then placed in a greenhouse at 70% relative air humidity and a temperature of 23° C.

Pyrenophora teres = assay: Example K: Pyrenophora teres test (barley)/protective; type: in vivo; conditions: protective, 500 ppm, evaluation 8 days after inoculation
Method: (§1) Solvent: 49 parts by weight of N,N-dimethylacetamide Emulsifier: 1 part by weight of alkylaryl polyglycol ether To produce a suitable preparation of active compound, 1 part by weight of active compound is mixed with the stated amounts of solvent and emulsifier, and the concentrate is diluted with water to the desired concentration. To test for protective activity, young plants are sprayed with the preparation of active compound at the stated application rate. After the spray coating has dried on, the plants are sprayed with a spore suspension of Pyrenophora teres.

Alternaria solani = assay: Example A: Alternaria test (tomato)/protective; type: in vivo; conditions: protective, 500 ppm, evaluation 7 days after inoculation
Method: Solvent: 49 parts by weight of N,N-dimethylformamide Emulsifier: 1 part by weight of alkylaryl polyglycol ether To produce a suitable preparation of active compound, 1 part by weight of active compound is mixed with the stated amounts of solvent and emulsifier, and the concentrate is diluted with water to the desired concentration. […] The plants then remain at 96% rel. atmospheric humidity and a temperature of 20° C.

Pyricularia oryzae = type: in vivo; conditions: rice, protective, 500 ppm, evaluation 7 days after inoculation
Fusarium graminearum = type: in vivo; conditions: barley (heading), protective, 500 ppm, evaluation 5 days after inoculation
Uromyces appendiculatus [6] = assay: Example E: Uromyces test (bean)/protective; type: in vivo; conditions: protective, 10 ppm, evaluation 10 days after inoculation
Method: Solvents: 24.5 parts by weight of acetone • 24.5 parts by weight of dimethylacetamide Emulsifier: 1 part by weight of alkylaryl polyglycol ether To produce a suitable preparation of active compound, 1 part by weight of active compound is mixed with the stated amounts of solvent and emulsifier, and the concentrate is diluted with water to the desired concentration. To test for protective activity, young plants are sprayed with the preparation of active compound at the stated application rate. […] The plants are then placed in a greenhouse at about 21° C. and a relative atmospheric humidity of about 90%.

[7] = system: Blumeria graminis f.sp. hordei; assay: Example G: Blumeria graminis test (barley)/protective; type: in vivo; conditions: protective, 500 ppm, evaluation 7 days after inoculation
Method: Solvent: 49 parts by weight of N,N-dimethylacetamide Emulsifier: 1 part by weight of alkylaryl polyglycol ether To produce a suitable preparation of active compound, 1 part by weight of active compound is mixed with the stated amounts of solvent and emulsifier, and the concentrate is diluted with water to the desired concentration. To test for protective activity, young plants are sprayed with the preparation of active compound at the stated application rate. After the spray coating has dried on, the plants are dusted with spores of Blumeria graminis f.sp. hordei.

Leptosphaeria nodorum = assay: Example H: Leptosphaeria nodorum test (wheat)/protective; type: in vivo; conditions: protective, 500 ppm, evaluation 8 days after inoculation
Method: as §1, with “Leptosphaeria nodorum.” for “Pyrenophora teres.”

Puccinia triticina = assay: Example L: Puccinia triticina test (wheat)/protective; type: in vivo; conditions: protective, 500 ppm, evaluation 8 days after inoculation
Method: as §1, with “sprayed with spores with a spore” for “sprayed with a spore”, “suspension of Puccinia triticina.” for “suspension of Pyrenophora teres.”

[8] = system: Fusarium nivale (var. majus); assay: Example M: Fusarium nivale (var. majus) test (wheat)/protective; type: in vivo; conditions: protective, 500 ppm, evaluation 5 days after inoculation
Method: as §1, with “Fusarium nivale (var. majus).” for “Pyrenophora teres.”

Septoria tritici [9] = assay: Example I: Septoria tritici test (wheat)/protective; type: in vivo; conditions: protective, 500 ppm, evaluation 21 days after inoculation
Method: as §1, with “Septoria tritici.” for “Pyrenophora teres.”

Compound `Fc1ccc(C2(Cn3ccnc3I)OC2c2ccccc2Cl)cc1` (mixture of isomers) [Example 6] has an Efficacy % (Alternaria brassicae) of 75%.
For `Fc1cc(Cl)ccc1C1(Cn2ccnc2I)OC1c1ccccc1Cl` (mixture of isomers) [Example 9], the Efficacy % (Uromyces appendiculatus [1]) was 93%, the Efficacy % (Puccinia recondita) was 86% and the Efficacy % (Sphaerotheca fuliginea [2]) was 100%. It also gave an Efficacy % (Septoria tritici [3]) of 100%.
`Fc1ccc(C2(Cn3ccnc3I)OC2c2ccccc2Cl)c(Cl)c1` (mixture of isomers) [Example 15] showed an Efficacy % (Uromyces appendiculatus [1]) of 100%, an Efficacy % (Puccinia recondita) of 100% and an Efficacy % (Sphaerotheca fuliginea [2]) of 98%. It also gave an Efficacy % (Septoria tritici [3]) of 86%.
`Fc1ccc([C@]2(Cn3ccnc3I)O[C@@H]2c2ccccc2Cl)c(F)c1` (relative stereo) [Example 13, rel-1-{[(2R,3R)-3-(2-chlorophenyl)-2-(2,4-difluorophenyl)oxiran-2-yl]methyl}-2-iodo-1H-imidazole] showed an Efficacy % (Phytophthora infestans) of 98%, a chromatographic logP ([4]; pH 2.7, log P(HCOOH)) of 2.86 and a chromatographic logP ([4]; pH 2.7, logP) of 2.86.
In the case of `CC(=Cc1ccccc1Cl)c1ccc(F)cc1F` [1-[1-(2-chlorophenyl)prop-1-en-2-yl]-2,4-difluorobenzene], the chromatographic logP ([4]; pH 2.7, HPLC/MS, major diastereoisomer of the mixture, read-out: log P(HCOOH)) is reported as 5.05 and the chromatographic logP ([4]; pH 2.7, HPLC/MS, minor diastereoisomer of the mixture, read-out: log P(HCOOH)) is reported as 5.34.
With `Fc1ccc(C(=Cc2ccccc2Cl)CBr)c(F)c1` [1-[3-bromo-1-(2-chlorophenyl)prop-1-en-2-yl]-2,4-difluorobenzene] the “log P(HCOOH)” value ([4]; pH 2.7) was 5.25 and the chromatographic logP ([4]; pH 2.7, log P(HCOOH)) was 4.8.
For `Fc1ccc(C2(CBr)OC2c2ccccc2Cl)c(F)c1` (stereo not shown) [2-(bromomethyl)-3-(2-chlorophenyl)-2-(2,4-difluorophenyl)oxirane], the “log P(HCOOH)” value ([4]; pH 2.7) was 5.00 and the chromatographic logP ([4]; pH 2.7, log P(HCOOH)) was 4.61.
`OC(Cc1ccccc1F)(Cn1ccnc1I)C1(Cl)CC1` (stereo not shown) [Example 2] gave an Eff. % (Sphaerotheca fuliginea [5]) of 92%, an Eff. % (Pyrenophora teres) of 100% and an Eff. % (Alternaria solani) of 95%. For the same compound, the Eff. % (Pyricularia oryzae) was 80%, the Eff. % (Fusarium graminearum) was 92% and 100% and the Eff. % (Uromyces appendiculatus [6]) was 91% and 100%. For the same compound, the logP ([4]; pH 2.7) was 2.05, the logP ([4]; pH 7.8) was 3.02 and the Eff. % [7] was 100%. The Eff. % (Leptosphaeria nodorum) was 93%, the Eff. % (Puccinia triticina) was 100% and the Eff. % [8] was 100%. It also gave an Eff. % (Septoria tritici [9]) of 86%.
